Where two headings read alike, the source gives them in different places.
Experiments:
[1] = tested on: MV4-11 AML cells; assay: AML cell killing with NK cells, Annexin V viable cell count at 72 h (IC50 and Chou-Talalay synergy); type: cell-based; settings: Homo sapiens
Procedure: (§1) Initially, cells from each AML cell line were treated with decitabine, cusatuzumab or venetoclax alone to determine the IC50 for each treatment. 10^5 AML cells were treated with a concentration range of cusatuzumab (0.1, 1.0 and 10 μg/ml), venetoclax (0.5 and 200 nM), decitabine (0.01-1 μM) or vehicle in the presence of CFSE-labelled NK cells derived from healthy individuals (ratio 1:1). The assay was performed in triplicate.
(§2) To determine synergy, a constant combination ratio experiment was carried out at equipotency ratio (IC501/IC502, or IC501/IC502/IC503) so that each drug contributed equally to cell killing. Combination drug dose responses were assessed in two technical replicates for every dose/dose combination as previously described (Riether et al., Sci Transl Med (2015) 7(298); 298ra119.
(§3) NOMO-1, MOLM-13, NB-4 or MV4-11 AML cell lines were treated with vehicle, decitabine, cusatuzumab or venetoclax alone, a double combination of venetoclax and decitabine, decitabine and cusatuzumab, or venetoclax and cusatuzumab, or a triple combination of decitabine, cusatuzumab and venetoclax. All combinations were tested at three high and three low concentrations (above and below the identified IC50s) and in a constant ratio. Cells were cultured in the presence of CFSE-labeled NK cells (ratio 1:1). Viable AML cell numbers were assessed 72 hours later by Annexin V staining, and the effect of drug treatment was calculated as the ratio of surviving cells to vehicle-treated cells.
(§4) The Combination Index (CI) was calculated and plotted against Fraction affected (Fa) using CompuSyn software. The resultant plot of the combination index (CI) against fraction affected (Fa) for all combinations is shown in FIG. 1, with the individual combinations shown in FIGS. 2A-2D.
(§5) Fa values of 0, 0.5, and 1 correspond to 0, 50, and 100% killed cells. A CI of <1, 1, >1 represents synergism, additivity, and antagonism, respectively. IC50s indicates Fa values reached for the combination of respective IC50 concentrations. The principles and advantages of the Fa-CI plot method of assessing synergism are provided in, for example, Chou T C, Cancer Research (2010) 70(2); 440-6 and Zhao et al. Front Biosci (Elite Ed). (2010) 2; 241-249 (each of which is incorporated herein by reference in its entirety).

[2] = tested on: MOLM-13 AML cells; assay: as above; type: cell-based; settings: Homo sapiens
Procedure: as §1, §2, §3, §4, §5

[3] = tested on: NOMO-1 AML cells; assay: as above; type: cell-based; settings: Homo sapiens
Procedure: as §1, §2, §3, §4, §5

[4] = tested on: NB4 AML cells; assay: as above; type: cell-based
Procedure: as §1, §2, §3, §4, §5

[5] = cited from earlier work
[6] = tested on: CD70 expression; assay: CD70 mRNA and protein expression in AML cells; type: cell-based; settings: AML cells (MOLM-13, NOMO-1) in the presence of venetoclax
Procedure: FIG. 9: CD70 mRNA expression (as percentage of housekeeping gene) following treatment with vehicle (Veh) or venetoclax (Ven) for 24 or 48 hrs.
FIG. 10: CD70 protein and mRNA expression by MOLM-13 and NOMO-1 cells in the presence (gray bars) and absence (black bars) of venetoclax. Significance was determined using a Student's t-test. MFI=mean fluorescence intensity. *** P<0.001.
The effect of venetoclax on expression of CD70 at both the mRNA and protein level was assessed.

[7] = tested on: CD27 signalling; settings: cited from earlier work
[8] = tested on: CD70-expressing tumour cells; settings: Silence et al. (2014); cited from earlier work
[9] = molecular target: T1, CD70 (Homo sapiens, UniProt P32970); settings: Silence et al. (2014); cited from earlier work
T1 sequence (P32970 1-193): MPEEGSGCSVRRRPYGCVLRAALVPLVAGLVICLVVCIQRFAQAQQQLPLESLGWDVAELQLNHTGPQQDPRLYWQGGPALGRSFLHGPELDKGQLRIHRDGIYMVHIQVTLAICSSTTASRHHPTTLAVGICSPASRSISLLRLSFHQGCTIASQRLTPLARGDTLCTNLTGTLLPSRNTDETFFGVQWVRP

Q: Which results are given for `Nc1ncn([C@H]2C[C@H](O)[C@@H](CO)O2)c(=O)n1` [decitabine]?
A: IC50 ([1]; MV4-11): 2.36 nM; IC50 ([2]; MOLM-13): 0.01 nM; IC50 ([3]; NOMO-1): 0.001 nM; IC50 [4]: 4.8 nM

Q: With `CC1(C)CCC(CN2CCN(c3ccc(C(=O)NS(=O)(=O)c4ccc(NCC5CCOCC5)c([N+](=O)[O-])c4)c(Oc4cnc5[nH]ccc5c4)c3)CC2)=C(c2ccc(Cl)cc2)C1` [venetoclax, 4-(4-{[2-(4-chlorophenyl)-4,4dimethylcyclohex-1-en-1-yl]methyl}piperazin-1-yl)-N-({3-nitro-4-[(tetrahydro-2H-pyran-4ylmethyl)amino]phenyl}sulfonyl)-2-(1H-pyrrolo[2,3-b]pyridin-5-yloxy)benzamide] as the molecule, how does the IC50 ([1]; MV4-11, monotherapy, NK cells ratio 1:1, read-out: IC50) read?
A: Its IC50 is 5 nM.

Q: And the IC50 ([2]; MOLM-13, monotherapy, NK cells ratio 1:1, read-out: IC50)?
A: Its IC50 is 0.42 nM.

Q: What about the IC50 ([3]; NOMO-1, monotherapy, NK cells ratio 1:1, read-out: IC50) of the same molecule?
A: Its IC50 is 3.4 nM.

Q: And the IC50 ([4]; NB4, monotherapy, NK cells ratio 1:1, read-out: IC50)?
A: The IC50 was 17.3 nM.

Q: What about the Aqueous solubility [5] of the same molecule?
A: The Aqueous solubility was “very low aqueous solubility”.

Q: What about the “CD70 expression (mRNA and protein)” value [6] of the same molecule?
A: Its value is “up-regulated”.

B1: cusatuzumab: IgG1 anti-CD70 antibody, ADCC-enhanced humanized monoclonal; VH SEQ ID NO: 4, VL SEQ ID NO: 8 (antibody, V domains shown)
VH: EVQLVESGGGLVQPGGSLRLSCAASGFTFSVYYMNWVRQAPGKGLEWVSDINNEGGTTYYADSVKGRFTISRDNSKNSLYLQMNSLRAEDTAVYYCARDAGYSNHVPIFDSWGQGTLVTVSS
VL: QAVVTQEPSLTVSPGGTVTLTCGLKSGSVTSDNFPTWYQQTPGQAPRLLIYNTNTRHSGVPDRFSGSILGNKAALTITGAQADDEAEYFCALFISNPSVEFGGGTQLTVLG
Q: For B1, which “CD70-induced CD27 signalling” value [7] is on record?
A: Its value is “inhibit CD70-induced CD27 signalling”.

Q: What about the “Lysis of CD70-expressing tumour cells via ADCC and CDC” value [8] of the same molecule?
A: Its value is “lyse CD70-expressing tumour cells”.

Q: What about the “Interaction of CD70 with CD27” value [9] of the same molecule?
A: Its value is “inhibit the interaction of CD70 with its receptor CD27”.

Source: patent US11712468B2, “CD70 combination therapy” (Argenx BV, priority 2018, dated 2023)
